One molecule from US20240208984A1, “BIVALENT LIGANDS TO UNDERSTAND DIMERIZATION OF THE MU OPIOID RECEPTOR AND THE CHEMOKINE RECEPTOR CCR5 IN NEUROLOGICAL DISORDERS” (priority 2021, published 2024) can be followed below.

Molecules are shown by their SMILES.

Series [1] deals with HIV-1BaL. Briefly: Anti-HIV-1BaL activity (reverse transcriptase activity) in GHOST CCR5 cells. To be noted: read-out: Inhibition of HIV-1BaL EC50, RT activity, triplicate.
Experimental: This assay was run in GHOST-CCR5 cells using the CCR5-tropic viral strain HIV-1BaL.
100 μL of GHOST CCR5 cells at a density of 1×10^4 cells/well in 10% complete DMEM (10% FBS with 1% L-glutamine and 1% Penicillin/Streptomycin) media were plated in a 96-well flat bottom plate and incubated for 24 h at 37° C./5% CO2. Following the incubation, 100 μL of each compound at 6 concentrations were added in triplicate to both efficacy and toxicity plates followed by 100 μL of HIV-1BaL at a pre-determined titer to the plates being evaluated for efficacy and 50 μL of complete DMEM to the plates being evaluated for cytotoxicity. The cultures were incubated for 6 days at 37° C./5% CO2. Following the incubation, 50 μL of cell culture supernatant was removed from the wells of the efficacy plates for subsequent evaluation of virus content by reverse transcriptase activity assay. The toxicity plates being evaluated for cytotoxicity were stained with XTT.
RT activity (EC50 values) was measured using standard radioactivity incorporation polymerization assay. 1 μL of titrated thymidine triphosphate (TTP) at 1 Ci/mL was used per enzyme reaction. Poly rA and oligo dT were prepared at concentrations of 0.5 mg/mL and 1.7 Units/mL, respectively, from a stock solution which was kept at −20° C. The RT reaction buffer was prepared fresh and consists of 125 μL of 1M EGTA, 125 μL of dH2O, 125 μL of 20% Triton X-100, 50 μL of 1M Tris (pH 7.4), 50 μL of 1M DTT, and 40 μL of 1 M MgCl2. For each reaction, 1 μL of TTP, 4 μL of dH2O, 2.5 μL of rAdT and 2.5 μL of reaction buffer were mixed. 10 μL of this reaction mixture was placed in a round bottom microtiter plate with 15 μL of virus containing supernatant. The plate was incubated at 37° C. in a humidified incubator for 60-90 min. […] The dried filtermat was placed in a plastic sleeve and 4 mL of Opti-Fluor O (Perkin Elmer, catalog #1205-440) scintillation fluid was added to each sleeve. […] TC50 values for the tested compounds were derived by measuring the reduction of the tetrazolium dye XTT (2,3-bis(2-methoxy-4-nitro-5-sulfophenyl)-5-[(phenylamino)carbonyl]-2H-tetrazolium hydroxide). XTT in metabolically active cells is metabolized by the mitochondrial enzyme NADPH oxidase to a soluble formazan product. XTT solution was prepared as a stock of 1 mg/mL in RPMI-1640 without additives. Phenazine methosulfate (PMS) solution was prepared at 0.15 mg/mL in DPBS and stored in the dark at −20° C. XTT/PMS stock was prepared immediately before use by adding 40 μL of PMS per mL of XTT solution. […] The plates were sealed and inverted several times to mix the soluble formazan product and the plate was read at 450 nm (650 nm reference wavelength) with a Molecular Devices SPECTRAMAX® Plus 384 96 well format spectrophotometer.
Series [2] concerns HIV-1BaL Env-pseudotyped Luc-expressing virus. Briefly: HIV-1-Luc infection assay in PBMCs. The format is cell-based. To be noted: non-stimulated PBMCs; 1000 nM. An excerpt:
(§1) Peripheral blood mononuclear cells (PBMCs) include large numbers of CCR5-expressing leukocytes and are susceptible to infection by R5-tropic HIV-1 strains.
Isolated human PBMCs were obtained commercially from the New York Blood Bank and exempt from Human Subjects criteria (NIH Exemption 4: website located at nih.gov/sites/default/files/exemption_infographic_v7_508c-3-21-19.pdf). The adult PBMCs are publicly available and no information or identifiers are provided so subjects cannot be identified. […] After 3 days in culture, supernatants were harvested, floating cells removed by centrifugation, HIV-1 p24 Ag measured by commercial ELISA (Zeptometrix), and viral aliquots stored at −80° C. […]
PBMCs were isolated from buffy coats of healthy blood donors by centrifugation in Ficoll gradient (MP Biomedicals). Viable cells, determined by Trypan blue exclusion, were stimulated, or not, for 2 days with 5 μg/mL PHA (Sigma). […]
After 2 days of infection, 100 μL of 2× Luciferase Substrate containing lysing buffer (BRIGHT-GLO™ Luciferase Assay System, Promega) were added per well, plate was agitated for 2 mins (700 rpm) and Luminescence was evaluated using a PHERASTAR® FS plate reader (BMG Labtech).

The test system is the same in series [3]. Briefly: HIV-1 infection assay in PHA-stimulated PBMC cells. To be noted: PHA-stimulated PBMCs, 100 nM. It counts as cell-based. The procedure:
as §1
In a 24-well plate, PHA-stimulated PBMC cells from healthy donors were infected by incubation with the HIV-1BaL.01 env-pseudotyped Luc virus. A concentration of HIV-1 p24 50 pg/106 cells was used, and uninfected cells served as a negative control. […] After approximately 18-20 h, the supernatant was removed and stored at −80° C., cells were rinsed twice with PBS and lysed. The lysate was subsequently tested for the relative Tat protein expression by using a luciferase assay system (Promega). Luciferase activity was measured using a PHERASTAR® FS plate reader (BMG Labtech).

Series [4] deals with HIV-1BaL. As to the kind of experiment: HIV-1BaL infection assay in MOR-CCR5 co-expressed TZM-b1 cells. It counts as cell-based. To be noted: read-out: Inhibition of HIV-1BaL infection EC50.
Experimental: CCR5-expressing TZM-b1 cells co-express an HIV-1 long-terminal repeat (LTR)-firefly luciferase reporter that can be activated by Tat (trans-activator of transcription) in cells expressing HIV. […] To initially determine whether the co-expression of MOR affected HIV-1 entry/expression, OPRM1- or control plasmid-transfected TZM-b1 cells were exposed to varying concentrations of HIV-1BaL and HIV-1 entry was calculated based on LTR-driven luciferase activity.
HIV-1BaL.01 was kindly donated and expanded in Phytohemagglutinin (PHA)-activated Peripheral Blood Mononuclear Cells (PBMCs). The amount of viral particles was determined by commercial ELISA for p24 capsid antigen (Zeptometrix) and aliquots were stored at −80° C. The TZM-b1, a cell line contained integrated copies of luciferase under control of the HIV-1 long-terminal repeat (LTR), were kindly donated.
Cells were transfected with plasmid containing GFP-tagged human opioid receptor mu 1 gene (OPRM1; Origene) or with the original empty vector also containing GFP (control plasmid; Origene) and selected for 2 weeks with 2 mg/ml G418 (Invivogen) in DMEM (Hyclone) supplemented with 1×MEM Non-essential amino acids (Gibco), 10% heat-inactivated FBS (Hyclone) and 100 U Penicillin-0.1 mg/ml Streptomycin (Sigma). Then, GFP+ cells were sorted out twice by flow cytometry (BDFACSAria model, Becton-Dickinson) and maintained in the conditions mentioned above with 800 μg/ml G418. For the infection, cells were detached from 25 cm2 flasks with 0.25% Trypsin (Sigma), washed by centrifugation (400 g—10 mins) and viable cells determined by Trypan blue (Sigma) exclusion. […] Luciferase activity was evaluated following the addition of 100 μL/well of 2× luciferase substrate containing lysis buffer (BRIGHT-GLO™ Luciferase Substrate, Promega) after 2-3 days of infection.
Luminescence, reported as relative luminescence units (RLU), was evaluated in PHERASTAR® FS plate reader and results expressed as percentage of inhibition relative to vehicle-treated, infected cells (100% infection).
Series [5] addresses Rhesus macaque chemokine CCR5 receptors (Macaca mulatta (Rhesus macaque), UniProt P61813). As to the kind of experiment: In vitro CCR5 radioligand binding assay. The conditions noted are these: [125I]MIP-1α radioligand; Chem-1 cells; Cheng-Prusoff; mean ± SEM; read-out: CCR5 Radioligand Binding Affinity Ki. The procedure: In vitro CCR5 radioligand binding studies. To verify the binding affinity of the bivalent ligands to the CCR5, the competitive radioligand binding assay was conducted in recombinant rhesus macaque CCR5-expressing Chem-1 cells, and macrophage inflammatory protein 1 beta (MIP-1β) was used as a control.
The CCR5 competitive radioligand binding assay was conducted following previously reported studies.74, 75 Rhesus macaque chemokine CCR5 receptors expressed in Chem-1 cells are assayed in modified HEPES buffer (50 mM HEPES, 1 mM CaCl2, 5 mM MgCl2, 0.2% BSA, pH 7.4). 3 μg of membrane protein was incubated with 0.10 nM [^125I]MIP-1α in the presence of six concentrations of tested compounds (10 μM, 1 μM, 0.1 μM, 10 nM, 1 nM, and 0.1 nM) for 90 min at 25° C. Non-specific binding is estimated in the presence of 0.1 μM MIP-1β.

A further series addresses mouse mu opioid receptor (Mus musculus (Mouse), UniProt P42866). Briefly: Calcium mobilization assay in mMOR-CHO cells. The format is cell-based. The procedure:
Calcium mobilization assay results in mMOR-CHO cells. The pharmacological profiles of the three newly prepared MOR bivalent ligands were further characterized for their effects on MOR-dependent intracellular Ca^2+ signaling in an mMOR-CHO cell line that was transfected with chimeric Gqi5 protein as previously described.
A CHO cell line stably expressing the mouse mu opioid receptor (mMOR-CHO) was used for this assay. The cells were transfected with Gαqi5 for 4 h and then plated (10,000 cells/well) to black 96-well plates with clear bottoms (Greiner Bio-One). After 24 h of incubation, the culture medium was removed, and the cells were washed with assay buffer (50 mL of HBSS, 1 mL of HEPES, 250 μL of probenecid, 50 μL of 1 mM CaCl2, and 50 μL of 1 mM MgCl2). The tested compounds were dissolved in DMSO as a stock solution for the assay (1 M). For agonist assays, cells were then incubated with 50 μL/well loading buffer (6 mL of assay buffer, 24 μL of Fluo4-AM solution (Invitrogen), and 12 μL of probenecid solution) for 60 min. Following incubation, different concentrations of the tested compounds were added by a FlexStation3 microplate reader (Molecular Devices) and read at ex494/em516. Each concentration was run in triplicate. For antagonism studies, the cells were incubated with the same loading buffer as the agonist assay for 60 min. Then, different concentrations of the tested compounds (20 μL/well) were manually added to each well followed by another 15 min of incubation. […] Each concentration was run in triplicate. The corresponding IC50 value of each compound was calculated by non-linear regression using GraphPad Prism 8.0.1 (GraphPad Software, San Diego, CA).
(Calcium flux is commonly read through the fluorescence of an indicator in the cells.)

A further series concerns the target mouse MOR (Mus musculus (Mouse), UniProt P42866). As to the kind of experiment: In vitro MOR radioligand binding assay. To be noted: [3H]naloxone radioligand; mMOR-CHO; mean ± SEM; read-out: MOR Radioligand Binding Affinity Ki.

Chain of mouse mu opioid receptor (P42866 whole entry, looked up): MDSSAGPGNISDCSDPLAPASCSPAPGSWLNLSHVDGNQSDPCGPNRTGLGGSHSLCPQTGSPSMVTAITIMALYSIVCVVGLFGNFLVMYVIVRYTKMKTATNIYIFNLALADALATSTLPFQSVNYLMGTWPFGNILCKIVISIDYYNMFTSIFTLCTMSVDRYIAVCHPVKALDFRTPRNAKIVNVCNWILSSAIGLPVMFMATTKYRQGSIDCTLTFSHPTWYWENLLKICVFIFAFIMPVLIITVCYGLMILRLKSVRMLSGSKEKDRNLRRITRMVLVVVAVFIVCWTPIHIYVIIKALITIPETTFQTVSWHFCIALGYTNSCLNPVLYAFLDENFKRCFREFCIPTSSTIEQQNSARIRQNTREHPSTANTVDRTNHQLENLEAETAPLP
Chain of mouse MOR (P42866 whole entry, looked up): as the sequence (P42866 whole entry, looked up) above
Experimental for mouse MOR: In vitro MOR radioligand binding studies. All bivalent ligands were first tested for their binding affinity to the MOR. The competitive radioligand binding assay was conducted using monoclonal mouse MOR expressed in CHO cell lines (mMOR-CHO).
In vitro MOR radioligand binding assay The competition binding assay was conducted using monoclonal mouse MOR expressed in Chinese hamster ovary (CHO) cell lines. In this assay, 30 μg of membrane protein was incubated with the radioligand [^3H] naloxone in the presence of different concentrations of tested compounds in TME buffer (50 mM Tris, 3 mM MgCl2, and 0.2 mM EGTA, pH 7.4) for 1.5 h at 30° C. The bound radioligand was separated by filtration using a Brandel harvester. […] The IC50 values were determined and converted to Ki values using the Cheng-Prusoff equation: Ki=IC50/[1+([L*]/KD)], where [L*] is the concentration of the radioligand and KD is the KD of the radioligand was determined.73

Take `CC(C)c1nnc(CCNC(=O)COCC(=O)NCCCCCCCNC(=O)COCC(=O)NC2CC[C@@]3(O)[C@H]4Cc5ccc(O)c6c5[C@@]3(CCN4CC3CC3)[C@H]2O6)n1C1CC2CCC(C1)N2CC[C@H](NC(=O)C1CCC(F)(F)CC1)c1ccccc1` (some centres unmarked) [VZMC013]: the half-maximal effective concentration (EC50) – broadly, the midpoint of the concentration-response curve – came to 93 nM with HIV-1BaL [1]; 247 nM with HIV-1BaL [4] (OPRM1 transfected TZM-b1 cells, morphine 100 μM added); 368 nM in the series on HIV-1BaL [4] (OPRM1 transfected TZM-b1 cells, without morphine); 610 nM with HIV-1BaL [4] (control plasmid transfected TZM-b1 cells). For the same molecule, the “Inhibition of HIV-1-Luc infectivity” value in series [2] is “nearly complete blockade”. Besides, the “decrease in HIV expression” value was 69% in series [3] (co-exposed to DAMGO 10 nM) and 55% in series [3] (co-exposed to morphine 10 nM). Also, the “reduction in luminescence (viral entry)” value in series [3] (no opioid) was 22%. In addition, the Ki (commonly a dissociation constant, usually derived from enzyme kinetics or from competition with a known ligand) in series [5] was 3.29 nM; at mouse MOR it was 6.05 nM. Besides, the “MOR agonism in Ca2+ mobilization” value at mouse mu opioid receptor (agonist mode, varying concentrations) is reported as “No agonism was observed”. Also, the concentration for half-maximal inhibition (IC50) (in general, the concentration at which inhibition is half-maximal) at mouse mu opioid receptor (read-out: Inhibition of DAMGO Induced Ca2+ Mobilization IC50, mMOR-CHO transfected with Gqi5, DAMGO 500 nM, mean ± SEM) came to 50 ± 2.45 nM. Moreover, the “Cytotoxicity TC50” value with GHOST CCR5 cells (GHOST CCR5 cells, XTT, triplicate) was >100000 nM. For the same molecule, the cell viability (in general, a per cent measure of how many cells are alive, often set against a control) in the series on GHOST CCR5 cells (any concentration ≤100 μM, untreated cells = 100%) was ~100%.
